Test results as given in publication PMC10492782, “Exploiting the aggregation propensity of beta-lactamases to design inhibitors that induce enzyme misfolding” (Nature Communications, 2023).

Assays:
[1] = system: E. coli K12 MG1655 overexpressing GFP; assay: Structured illumination microscopy of strains expressing GFP or FP fusions; type: cell-based, Escherichia coli; details: strains stably expressing GFP or proteins fused to FPs treated with TEM3.2
Text: Fig. 5 Induction of aggregation in cells. […] A single representative image is shown. […] A single representative image is shown. C SIM and brightfield images as in A, but for E. coli ATCC strain. […] A single representative image is shown. […] A single representative blot is shown. […] The corrected P-values were 0.6091, 0.0029, 0.0027, <0.0001, and 0.9992, from left to right. […] Statistics exactly as in E, but from 3 independent experiments. The corrected P-values were 0.8753, 0.9796, 0.0001, 0.0003, and 0.0003, from left to right. Source data are provided as a Source Data file.
Bacteria were fixed by adding 2.5% paraformaldehyde and 0.04 % glutaraldehyde (final concentrations) to the culture media, followed by incubation at room temperature for 15 min and 30 min on ice. Bacteria were then washed in PBS and resuspended in GTE buffer (50 mM glucose, 25 mM Tris, and 10 mM EDTA, pH 8.0). Directly preceding microscopic analysis, cells were transferred to a glass slide and covered with a coverslip. Imaging was performed using a Zeiss Elyra S.1 system in the VIB BioImaging Core at KU Leuven.

[2] = system: uro-pathogenic E. coli strain (UPEC strain blaTEM-1); assay: MIC of ampicillin with or without 32 µg/mL TEM3.2 or tazobactam; type: cell-based, Escherichia coli; details: 32 μg/mL of either TEM3.2 or tazobactam
Description: We also performed a tolerability study using a dose escalation method by administering the peptide at 2, 5, 10, 15, and 20 mg/kg via different parenteral routes: intravenous (IV), intraperitoneal (IP), and subcutaneous (SC) in female C57BL/6JAX mice, aged 8–10 weeks (Suppl Table 4). […] Vehicle alone (0.9% NaCl) was also administered (IV). After 24 h the animals were sacrificed and the bacterial load in the bladder, kidney, and ureter was quantified by determining the number of colony-forming units (CFU) per mL of tissue extract (Fig. 7E–G).
Determination of MIC values was performed using the broth microdilution method according to the EUCAST guideline, which was performed in 96-well polystyrene flat-bottom microtiter plates (BD Biosciences). Briefly, a single colony was inoculated into 5 mL Difco™ Mueller–Hinton Broth (BD Biosciences Ref 275730) and grown to the end-exponential growth phase in a shaking incubator at 37 °C. Cultures were subsequently diluted to a MacFarland (0.5 optical density) to reach 10^6 CFU/mL in fresh MHB medium. 50 µl of different concentrations of peptides ranging from 128 to 2 µg/mL were serially diluted to the sterile 96-well plate in MHB. 50 µL of the diluted bacteria in MHB were next pipetted into 96-well plates to reach the final volume of 100 µL. The bacteria grown with the maximum concentration of carrier and medium were considered positive and negative controls, respectively. The plates were statically incubated overnight at 37 °C to allow bacterial growth. OD was measured at 590 nm using a multipurpose ultraviolet–visible plate reader, and the absorbance of the bacterial growth was measured using an absorbance reader.

[3] = target: T1, TEM beta-lactamase (Escherichia coli, UniProt P62593); assay: β-lactamase activity assay (nitrocefin); type: biochemical; details: chromogenic substrate nitrocefin, Suppl Fig. 8
T1 construct: His-tag (N); TEV cleavage site (N); made in house; host or cells: E. coli BL21 (DE3)
Description: The beta-lactamase assay procedure is based on the hydrolysis of the substrate Nitrocefin, a chromogenic cephalosporin, which produces a colored product (detectable at OD = 490 nm) that is directly proportional to the quantity of beta-lactamase activity. This experiment was carried out in 96-well black polystyrene flat-bottom microtiter plates (BD Biosciences). In brief, 50 μl of different concentrations of peptides or tazobactam in PBS were added to each well, followed by 50 μl of beta-lactamase protein at a final concentration of 12 ng. The plate was incubated at 37 °C for 1 h. The control heat was heated for 1 h at 95 degrees Celsius. Each well received 5 μl of Nitrocefin at a stock concentration of 0.5 mg/mL Nitrocefin. The hydrolyzed Nitrocefin was identified by absorption at 490 nm, which is proportional to the amount of beta-lactamase activity.

T1 sequence (P62593 24-286 limits assumed): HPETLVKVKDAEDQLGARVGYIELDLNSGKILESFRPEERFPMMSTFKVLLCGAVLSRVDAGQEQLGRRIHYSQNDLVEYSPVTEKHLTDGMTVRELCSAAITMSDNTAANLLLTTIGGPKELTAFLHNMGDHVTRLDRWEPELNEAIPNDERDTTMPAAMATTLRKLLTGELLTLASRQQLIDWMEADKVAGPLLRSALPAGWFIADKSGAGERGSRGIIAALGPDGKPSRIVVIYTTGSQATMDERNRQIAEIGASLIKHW

Ac-RLTAFLHNRRPRLTAFLRQRR-NH2 [TEM3.2]
induced aggregation of unrelated fluorescent proteins (in words) [1]: did not observe a similar induced aggregation of the fluorescent proteins
MIC Ampicillin in the presence of additive [2]: 25 µg/mL
effect on beta-lactamase enzymatic function (in words) [3]: loss of function of the enzymatic function of the beta-lactamase
